Test results taken from patent US7144879B2, “Substituted metal-phthalocyanines, their preparation and the use thereof” (L. Molteni & C. Dei Fratelli, priority 2000, dated 2006).

Columns and labels:
Format in all cases: cell-based
3T3 cells = test: Survival of 3T3 cells (model of mammalian cells) after photodynamic treatment; details: red light 650-750 nm, 50 mW/cm^2, PBS +5% DMSO, 5 min pre-incubation
Protocol: (§1) The irradiation is carried out with red light (650-750 nm), 50 mW/cm^2.

[1] = system: Candida albicans (ATCC10231; yeast); test: Photoinactivation of C. albicans, survival after photodynamic treatment; details: 1 μM, red light 650-750 nm, 50 mW/cm^2, PBS +5% DMSO, 10 min pre-incubation
From the text: (§2) The compounds synthesized have been assayed for their antifungal and antibacterial (Gram-positive e Gram-negative) activity. For the experiments the following micro-organisms were used: Candida albicans (ATCC10231; yeast), Staphylococcus aureus (ATCC 6538P, MRSA; Gram-positive), Escherichia coli (04; Gram-negative). All the micro-organisms were used in the experiments in a stationary state of growth. An example of experimental protocol used to assess the photoinactivation of micro-organisms is described as follows.
(§3) Cells in a stationary state of growth have been washed in physiological buffered saline solution (PBS) and diluted in order to obtain a cell suspension in the range 10^6÷10^9 cells/ml in PBS or appropriate medium.
(§4) Cell suspensions have then been treated with scalar aliquots of the photosensitising agent to be tested in the range 30÷0.01 μM, eventually as a photosensitizer conjugate. […] In order to determine the percentage of cell population after photoinactivation for each photosensitizer concentration, serially diluted samples resulting from the irradiation have been plated on Sabouraud Dextrose Agar (C. Albicans), on Tryptic Soy Agar (S. aureus), or on other suitable culture media and the data were compared with dark controls.
as §1

[2] = system: Escherichia coli (04; Gram-negative); test: Photoinactivation of E. coli, survival after photodynamic treatment; details: red light 650-750 nm, 50 mW/cm^2, PBS +5% DMSO, 5 min pre-incubation
From the text: as §2, §3, §4, §1

[3] = system: Staphylococcus aureus (ATCC 6538P, MRSA; Gram-positive); test: Photoinactivation of S. aureus (MRSA), survival after photodynamic treatment; details: red light 650-750 nm, 50 mW/cm^2, PBS +5% DMSO, 5 min pre-incubation
From the text: as §2, §3, §4, §1

erythrocytes = test: Haemolytic properties, dark and light treatment; details: for % Haemolysis (Light treatment) 30 J/cm^2 (50 mW/cm^2 × 10 min): light 30 J/cm^2 (50 mW/cm^2 × 10 min)

Compound: 2[1,3-bis-(trimethylammonium)2-propyloxy]zinc(II) phtalocyanine diiodide [Compound 18]
- Survival (%) (3T3 cells; 1 μM, irradiation 1 min): 100%
- Survival (%) (3T3 cells; 1 μM, irradiation 5 min): 97%
- Survival (%) (3T3 cells; 10 μM, irradiation 1 min): 100%
- Survival (%) (3T3 cells; 10 μM, irradiation 5 min): 94%
- Survival (%) ([1]; irradiation 1 min): 0.0001%
- Survival (%) ([1]; irradiation 5 min): 0.0001%
- Survival (%) ([2]; 1 μM, irradiation 1 min): 100%
- Survival (%) ([2]; 1 μM, irradiation 5 min): 100%
- Survival (%) ([2]; 10 μM, irradiation 1 min): 100%
- Survival (%) ([2]; 10 μM, irradiation 5 min): 2.34%
- Survival (%) ([3]; 1 μM, irradiation 1 min): 0.0002%
- Survival (%) ([3]; 1 μM, irradiation 5 min): 0.0001%
- Survival (%) ([3]; 10 μM, irradiation 1 min): 0.0001%
- Survival (%) ([3]; 10 μM, irradiation 5 min): 0.0001%

Compound: CN1CCC(Oc2ccc3c4[n]5c(c3c2)=NC2=NC(=Nc3c6ccccc6c([n]3[Zn]5)N=C3N=C(N=4)c4ccccc43)c3ccccc32)CC1 [Compound 4]
- % Haemolysis (Dark treatment) (erythrocytes; concentration 0.5 μM): 4.7%
- % Haemolysis (Light treatment) 30 J/cm^2 (50 mW/cm^2 × 10 min) (erythrocytes; concentration 0.5 μM): 0.9%
- % Haemolysis (Dark treatment) (erythrocytes; concentration 1 μM): 1.5%
- % Haemolysis (Light treatment) 30 J/cm^2 (50 mW/cm^2 × 10 min) (erythrocytes; concentration 1 μM): 1.2%
- % Haemolysis (Dark treatment) (erythrocytes; concentration 5 μM): 1.5%
- % Haemolysis (Light treatment) 30 J/cm^2 (50 mW/cm^2 × 10 min) (erythrocytes; concentration 5 μM): 1.5%
